Test results reported in ChEMBL document CHEMBL1201862, “PubChem BioAssay data set” (2004).
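Compound exposure: 48 hours, 5 concentrations, 96-well plates. Here, GI50 denotes the concentration required for 50% inhibition of growth.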 Active and inactive are the calls of the source. Rule as the data show it: active = GI50 up to about 1.1 µM and inactive = higher.

Key:
Experiment in all cases: DTP human tumour cell line panel, 48 h
OVCAR-8 = tested on: OVCAR-8
NCI-H23 = tested on: NCI-H23
SF-295 = tested on: SF-295
OVCAR-4 = tested on: OVCAR-4
MDA-MB-231 = tested on: MDA-MB-231
Malme-3M = tested on: Malme-3M
SK-OV-3 = tested on: SK-OV-3
MOLT-4 = tested on: MOLT-4
NCI-H460 = tested on: NCI-H460
HCT-116 = tested on: HCT-116
SNB-19 = tested on: SNB-19
CCRF-CEM = tested on: CCRF-CEM
TK-10 = tested on: TK-10
UO-31 = tested on: UO-31
HCC 2998 = tested on: HCC 2998
786-0 = tested on: 786-0
SR = tested on: SR
SK-MEL-28 = tested on: SK-MEL-28
KM-20L2 = tested on: KM-20L2
DLD-1 = tested on: DLD-1

Structure (SMILES) | GI50 (OVCAR-8) | GI50 (NCI-H23) | GI50 (SF-295) | GI50 (OVCAR-4) | GI50 (MDA-MB-231) | GI50 (Malme-3M) | GI50 (SK-OV-3) | GI50 (MOLT-4) | GI50 (NCI-H460) | GI50 (HCT-116) | GI50 (SNB-19) | GI50 (CCRF-CEM) | GI50 (TK-10) | GI50 (UO-31) | GI50 (HCC 2998) | GI50 (786-0) | GI50 (SR) | GI50 (SK-MEL-28) | GI50 (KM-20L2) | GI50 (DLD-1)
O=C1c2ccccc2-[n+]2ccc3c([nH]c4ccccc43)c21 [FASCAPLYSIN CHLORIDE] | 0.439 µM (active) | 0.31 µM (active) | 0.232 µM (active) | 0.628 µM (active) | 0.22 µM (active) | 0.0586 µM (active) | 1.56 µM (inactive) | 0.285 µM (active) | 0.263 µM (active) | 0.195 µM (active) | 0.615 µM (active) | 0.337 µM (active) | 1.14 µM (inactive) | 0.682 µM (active) | 0.19 µM (active) | 0.427 µM (active) | 0.132 µM (active) | 0.34 µM (active) | – | –
O=C(O)c1ccc(C2C(=O)N[C@@H]3CCC[C@H]23)cc1 (stereo partly drawn) | > 100 µM (inactive) | > 100 µM (inactive) | > 100 µM (inactive) | > 100 µM (inactive) | – | > 100 µM (inactive) | > 100 µM (inactive) | > 100 µM (inactive) | > 100 µM (inactive) | > 100 µM (inactive) | > 100 µM (inactive) | > 100 µM (inactive) | > 100 µM (inactive) | > 100 µM (inactive) | > 100 µM (inactive) | > 100 µM (inactive) | – | > 100 µM (inactive) | > 100 µM (inactive) | > 100 µM (inactive)
COC(=O)CCN(CCC(=O)OC)C1CC1 | > 100 µM (inactive) | > 100 µM (inactive) | > 100 µM (inactive) | > 100 µM (inactive) | > 100 µM (inactive) | > 100 µM (inactive) | > 100 µM (inactive) | > 100 µM (inactive) | > 100 µM (inactive) | > 100 µM (inactive) | > 100 µM (inactive) | > 100 µM (inactive) | > 100 µM (inactive) | 76.7 µM (inactive) | > 100 µM (inactive) | > 100 µM (inactive) | > 100 µM (inactive) | > 100 µM (inactive) | – | –
CCOC(=O)CCC(NC(=O)c1ccc(OCc2ccc3nc(-c4ccccc4)c(Cl)nc3c2)cc1)C(=O)OCC (stereo not drawn) | 14.2 µM (inactive) | 17.2 µM (inactive) | 22 µM (inactive) | 16.4 µM (inactive) | 24.3 µM (inactive) | > 100 µM (inactive) | 52.1 µM (inactive) | > 31.6 µM (inactive) | > 31.6 µM (inactive) | > 31.6 µM (inactive) | 17.3 µM (inactive) | > 31.6 µM (inactive) | 16.4 µM (inactive) | > 31.6 µM (inactive) | > 31.6 µM (inactive) | 16.6 µM (inactive) | 12.9 µM (inactive) | > 31.6 µM (inactive) | – | –
CNC(=O)N(CCC#N)CCCN(C(=O)N(C)C)c1ccccc1 | > 100 µM (inactive) | > 100 µM (inactive) | > 100 µM (inactive) | > 100 µM (inactive) | > 100 µM (inactive) | > 100 µM (inactive) | > 100 µM (inactive) | > 100 µM (inactive) | > 100 µM (inactive) | > 100 µM (inactive) | > 100 µM (inactive) | > 100 µM (inactive) | > 100 µM (inactive) | > 100 µM (inactive) | > 100 µM (inactive) | > 100 µM (inactive) | 14.5 µM (inactive) | > 100 µM (inactive) | – | –
O=C1Nc2nccnc2C(=O)N2CCC[C@@H]12 | > 100 µM (inactive) | > 100 µM (inactive) | > 100 µM (inactive) | > 100 µM (inactive) | > 100 µM (inactive) | > 100 µM (inactive) | > 100 µM (inactive) | > 100 µM (inactive) | > 100 µM (inactive) | > 100 µM (inactive) | > 100 µM (inactive) | > 100 µM (inactive) | > 100 µM (inactive) | > 100 µM (inactive) | > 100 µM (inactive) | > 100 µM (inactive) | > 100 µM (inactive) | > 100 µM (inactive) | – | –
CCN(CC)N1C(=O)[N-][N+](CC)(CC)C1=O | > 100 µM (inactive) | > 100 µM (inactive) | > 100 µM (inactive) | > 100 µM (inactive) | > 100 µM (inactive) | > 100 µM (inactive) | > 100 µM (inactive) | > 100 µM (inactive) | > 100 µM (inactive) | > 100 µM (inactive) | > 100 µM (inactive) | > 100 µM (inactive) | > 100 µM (inactive) | > 100 µM (inactive) | > 100 µM (inactive) | > 100 µM (inactive) | > 100 µM (inactive) | > 100 µM (inactive) | – | –
Cc1ccc(-n2cc(/C(N)=N/O)c3ccccc3c2=O)cc1 | > 100 µM (inactive) | > 100 µM (inactive) | > 100 µM (inactive) | – | – | > 100 µM (inactive) | > 100 µM (inactive) | > 100 µM (inactive) | > 100 µM (inactive) | > 100 µM (inactive) | > 100 µM (inactive) | > 100 µM (inactive) | > 100 µM (inactive) | > 100 µM (inactive) | > 100 µM (inactive) | > 100 µM (inactive) | > 100 µM (inactive) | > 100 µM (inactive) | > 100 µM (inactive) | –
